Test results: DBAASP
≈ marks a conversion by molar mass, not a printed value. Where “and” joins values, the source holds several entries; their conditions need not be identical. Identical values can stand only once.

Key:
Experiment in all cases: ≥ marks a high value that may be exact or a test limit, other limits are often not marked, values filed in µg/mL are converted to µM
[1] = tested on: Aeromonas salmonicida NCIMB 1102
[2] = tested on: Shewanella putrefaciens IAM 1509
[3] = tested on: Vibrio anguillarum NCIMB 829
[4] = tested on: Staphylococcus aureus IAM 1011
[5] = tested on: Vibrio parahaemolyticus Vp+1
[6] = tested on: Escherichia coli JCM 1649
[7] = tested on: Photobacterium damselae subsp. piscicida Sp 9587
[8] = tested on: Bacillus subtilis IAM 1026
[9] = tested on: Salmonella typhimurium
[10] = tested on: Candida albicans F7-39/IDE99
[11] = tested on: Micrococcus luteus CCM 144
[12] = tested on: Pseudomonas aeruginosa
[13] = tested on: Staphylococcus aureus
[14] = tested on: Escherichia coli B
[15] = tested on: Bacillus subtilis 168
[16] = tested on: Escherichia coli ATCC 25922
[17] = tested on: Pseudomonas aeruginosa CUN 4158-02
[18] = tested on: Staphylococcus aureus ATCC 25923
[19] = tested on: Pseudomonas aeruginosa ATCC 27853
[20] = tested on: Staphylococcus aureus CUN 3792-99
[21] = tested on: Acinetobacter baumannii ATCC 19606
[22] = tested on: Staphylococcus aureus ATCC 43300
[23] = tested on: Bordetella bronchiseptica CUN 11844-99
[24] = tested on: Stenotrophomonas maltophilia CUN 3998-00
[25] = tested on: Listeria innocua
[26] = tested on: Micrococcus luteus A270
[27] = tested on: Escherichia coli
[28] = tested on: Salmonella enterica subsp. enterica serovar Enteritidis
[29] = tested on: Staphylococcus aureus SAP 0017
[30] = tested on: Salmonella typhimurium C587
[31] = tested on: Escherichia coli DC2
[32] = tested on: Escherichia coli UB1005
[33] = tested on: Salmonella typhimurium C610
[34] = tested on: Enterococcus faecalis C625
[35] = tested on: Bacillus subtilis C971
[36] = tested on: Staphylococcus epidermidis C621
[37] = tested on: Pseudomonas aeruginosa H188
[38] = tested on: Corynebacterium xerosis C875
[39] = tested on: Pseudomonas aeruginosa H187
[40] = tested on: Staphylococcus epidermidis ATCC 12228

Question: For CC[C@H](C)[C@H](N)C(=O)NCC(=O)NCC(=O)N[C@H](C(=O)N[C@H](C(=O)N[C@@H](CO)C(=O)N[C@@H](Cc1ccccc1)C(=O)N[C@@H](Cc1ccccc1)C(=O)N[C@@H](CCCCN)C(=O)N[C@@H](CCCN=C(N)N)C(=O)N[C@@H](CC(C)C)C(=O)N[C@@H](Cc1ccccc1)C(=O)O)[C@@H](C)CC)[C@@H](C)CC [IGGIISFFKRLF], which MIC [1] is on record?
Answer: 17.9 µM (≈ 25 µg/mL)

Question: What about the MIC [2] of the same compound?
Answer: 2.24 µM (≈ 3.13 µg/mL)

Question: What about the MIC [3] of the same compound?
Answer: 4.47 µM (≈ 6.25 µg/mL)

Question: What about the MIC [4] of the same compound?
Answer: 4.47 µM (≈ 6.25 µg/mL)

Question: What about the MIC [5] of the same compound?
Answer: 8.94 µM (≈ 12.5 µg/mL)

Question: What about the MIC [6] of the same compound?
Answer: 8.94 µM (≈ 12.5 µg/mL)

Question: What about the MIC [7] of the same compound?
Answer: 4.47 µM (≈ 6.25 µg/mL)

Question: And the MIC [8]?
Answer: 4.47 µM (≈ 6.25 µg/mL)

Question: And the MIC [9]?
Answer: 8.94 µM (≈ 12.5 µg/mL)

Question: CC[C@H](C)[C@H](NC(=O)[C@H](C)NC(=O)CNC(=O)[C@H](Cc1c[nH]c2ccccc12)NC(=O)[C@H](CC(N)=O)NC(=O)[C@@H](N)CCCCN)C(=O)N[C@@H](CC(C)C)C(=O)N[C@@H](CCCCN)C(=O)N[C@@H](Cc1cnc[nH]1)C(=O)N[C@H](C(=O)N[C@H](C(=O)N[C@@H](CCCCN)C(N)=O)[C@@H](C)CC)[C@@H](C)CC [KNWGAILKHIIK] was tested. Which MIC [10] did it give?
Answer: 9.8 µM (≈ 13.9 µg/mL)

Question: What about the MIC [11] of the same compound?
Answer: 9 µM (≈ 12.8 µg/mL)

Question: What about the MIC [12] of the same compound?
Answer: 83.3 µM (≈ 118 µg/mL)

Question: What about the MIC [13] of the same compound?
Answer: 100 µM (≈ 142 µg/mL)

Question: And the MIC [14]?
Answer: 17.1 µM (≈ 24.3 µg/mL)

Question: And the MIC [15]?
Answer: 5.8 µM (≈ 8.23 µg/mL)

Question: With CC(C)C[C@H](NC(=O)[C@H](CCCN=C(N)N)NC(=O)[C@H](CCCN=C(N)N)NC(=O)[C@H](Cc1ccccc1)NC(=O)[C@H](CCCCN)NC(=O)[C@H](CCCCN)NC(=O)[C@H](CS)NC(=O)CN)C(=O)N[C@@H](CCCCN)C(=O)N[C@@H](Cc1c[nH]c2ccccc12)C(=O)N[C@@H](CCCCN)C(=O)N[C@@H](Cc1ccc(O)cc1)C(=O)N[C@@H](CCCCN)C(=O)NCC(=O)N[C@@H](CCCCN)C(=O)N[C@@H](Cc1ccccc1)C(=O)N[C@@H](Cc1c[nH]c2ccccc12)C(=O)N[C@@H](Cc1ccccc1)C(=O)N[C@@H](Cc1c[nH]c2ccccc12)C(=O)N[C@@H](CS)C(=O)NCC(N)=O [GCKKFRRLKWKYKGKFWFWCG] as the compound, how does the MIC [16] read?
Answer: 23.2 µM (≈ 64 µg/mL)

Question: And the MIC [17]?
Answer: ≥ 93 µM

Question: And the MIC [18]?
Answer: 11.6 µM (≈ 32 µg/mL)

Question: What about the MIC [19] of the same compound?
Answer: 93 µM (≈ 256 µg/mL)

Question: What about the MIC [20] of the same compound?
Answer: ≥ 372 µM

Question: And the MIC [21]?
Answer: 23.2 µM (≈ 64 µg/mL)

Question: What about the MIC [22] of the same compound?
Answer: 23.2 µM (≈ 64 µg/mL)

Question: What about the MIC [23] of the same compound?
Answer: 1.45 µM (≈ 4 µg/mL)

Question: What about the MIC [24] of the same compound?
Answer: ≥ 186 µM

Question: How did the MIC [25] turn out when CC(C)C[C@H](NC(=O)[C@@H](N)C(C)C)C(=O)N[C@@H](CO)C(=O)N[C@@H](C)C(=O)N[C@@H](C)C(=O)N[C@@H](CC(=O)O)C(=O)N[C@@H](CCCCN)C(=O)NCC(=O)N[C@@H](CC(N)=O)C(=O)N[C@H](C(=O)N[C@@H](CCCCN)C(=O)N[C@@H](C)C(=O)N[C@@H](C)C(=O)N[C@@H](Cc1c[nH]c2ccccc12)C(=O)NCC(=O)N[C@@H](CCCCN)C(=O)N[C@H](C(=O)NCC(=O)NCC(=O)N[C@@H](Cc1cnc[nH]1)C(=O)N[C@@H](C)C(=O)N[C@@H](C)C(=O)N[C@@H](CCC(=O)O)C(=O)N[C@@H](Cc1ccc(O)cc1)C(=O)NCC(=O)N[C@@H](C)C(=O)N[C@@H](CCC(=O)O)C(=O)O)C(C)C)C(C)C [VLSAADKGNVKAAWGKVGGHAAEYGAE] was run?
Answer: 27 µM (≈ 71.7 µg/mL)

Question: What about the MIC [26] of the same compound?
Answer: ≥ 38 µM

Question: And the MIC [27]?
Answer: 54 µM (≈ 143 µg/mL)

Question: And the MIC [28]?
Answer: ≥ 38 µM

Question: Which results are given for C[C@@H](O)[C@H](NC(=O)[C@H](CCCCN)NC(=O)[C@@H](NC(=O)[C@@H](NC(=O)[C@@H]1CCCN1C(=O)[C@@H](N)Cc1ccccc1)[C@@H](C)O)[C@@H](C)O)C(=O)N[C@@H](Cc1ccc(O)cc1)C(=O)N[C@@H](Cc1ccccc1)C(=O)N1CCC[C@H]1C(=O)N[C@@H](Cc1cnc[nH]1)C(=O)O [FPTTKTYFPH]?
Answer: MIC [25]: 1 µM (≈ 1.24 µg/mL); MIC [26]: 1 µM (≈ 1.24 µg/mL); MIC [27]: 9 µM (≈ 11.1 µg/mL); MIC [28]: 9 µM (≈ 11.1 µg/mL)

Question: Which results are given for CC[C@H](C)[C@H](NC(=O)[C@H](C)NC(=O)[C@H](CCCCN)NC(=O)[C@H](CC(C)C)NC(=O)[C@H](C)NC(=O)[C@@H](NC(=O)[C@H](Cc1cnc[nH]1)NC(=O)[C@H](CC(C)C)NC(=O)[C@@H](NC(=O)[C@@H](NC(=O)[C@H](CCCCN)NC(=O)[C@@H](NC(=O)[C@H](C)NC(=O)[C@H](CCCCN)NC(=O)[C@H](CCCCN)NC(=O)[C@H](Cc1ccccc1)NC(=O)[C@@H](NC(=O)[C@H](CCCCN)NC(=O)[C@H](CC(C)C)NC(=O)[C@H](Cc1ccccc1)NC(=O)[C@H](CO)NC(=O)[C@H](CCCCN)NC(=O)[C@H](Cc1c[nH]c2ccccc12)NC(=O)[C@H](CCCCN)NC(C)=O)[C@@H](C)O)C(C)C)[C@@H](C)O)C(C)C)[C@@H](C)O)C(=O)N[C@@H](CO)C(=O)N[C@@H](CO)C(N)=O [KWKSFLKTFKKAVKTVLHTALKAISS]?
Answer: MIC [29]: 5.4 µM (≈ 16.2 µg/mL); MIC [30]: 8.58 µM (≈ 25.8 µg/mL); MIC [31]: 1.35 µM (≈ 4.06 µg/mL); MIC [18]: 10.8 µM (≈ 32.4 µg/mL); MIC [32]: 3.41 µM (≈ 10.2 µg/mL); MIC [33]: 2.7 µM (≈ 8.11 µg/mL); MIC [34]: 10.8 µM (≈ 32.4 µg/mL); MIC [35]: 1.08 µM (≈ 3.24 µg/mL); MIC [36]: 2.16 µM (≈ 6.49 µg/mL); MIC [37]: 10.8 µM (≈ 32.4 µg/mL); MIC [38]: 1.35 µM (≈ 4.06 µg/mL); MIC [39]: 8.58 µM (≈ 25.8 µg/mL)

Question: How did the MIC [16] turn out when CC[C@H](C)[C@H](NC(=O)[C@H](C)NC(=O)[C@H](CCCCN)NC(=O)[C@H](CC(C)C)NC(=O)[C@H](C)NC(=O)[C@@H](NC(=O)[C@H](Cc1cnc[nH]1)NC(=O)[C@H](CC(C)C)NC(=O)[C@@H](NC(=O)[C@@H](NC(=O)[C@H](CCCCN)NC(=O)[C@H](CC(C)C)NC(=O)[C@H](C)NC(=O)[C@H](CO)NC(=O)[C@H](CCCCN)NC(=O)[C@H](Cc1ccccc1)NC(=O)[C@@H](NC(=O)[C@H](CCCCN)NC(=O)[C@H](CC(C)C)NC(=O)[C@H](Cc1ccccc1)NC(=O)[C@H](CO)NC(=O)[C@H](CCCCN)NC(=O)[C@H](Cc1c[nH]c2ccccc12)NC(=O)[C@H](CCCCN)NC(C)=O)[C@@H](C)O)[C@@H](C)O)C(C)C)[C@@H](C)O)C(=O)N[C@@H](CO)C(=O)N[C@@H](CO)C(N)=O [KWKSFLKTFKSALKTVLHTALKAISS] was run?
Answer: 4 µM (≈ 11.9 µg/mL)

Question: And the MIC [29]?
Answer: 8.66 µM (≈ 25.8 µg/mL)

Question: What about the MIC [30] of the same compound?
Answer: 10.9 µM (≈ 32.4 µg/mL)

Question: And the MIC [31]?
Answer: 1.7 µM (≈ 5.07 µg/mL)

Question: And the MIC [18]?
Answer: 10.9 µM and 8 µM

Question: What about the MIC [19] of the same compound?
Answer: 8 µM (≈ 23.8 µg/mL)

Question: What about the MIC [32] of the same compound?
Answer: 2.18 µM (≈ 6.49 µg/mL)

Question: What about the MIC [33] of the same compound?
Answer: 3.44 µM (≈ 10.2 µg/mL)

Question: What about the MIC [34] of the same compound?
Answer: 10.9 µM (≈ 32.4 µg/mL)

Question: What about the MIC [40] of the same compound?
Answer: 2 µM (≈ 5.95 µg/mL)

Question: What about the MIC [35] of the same compound?
Answer: 1.09 µM (≈ 3.24 µg/mL)

Question: What about the MIC [36] of the same compound?
Answer: 2.73 µM (≈ 8.11 µg/mL)

Question: What about the MIC [37] of the same compound?
Answer: 10.9 µM (≈ 32.4 µg/mL)

Question: And the MIC [38]?
Answer: 0.852 µM (≈ 2.53 µg/mL)

Question: And the MIC [39]?
Answer: 4.33 µM (≈ 12.9 µg/mL)
